# From patent US9611286B2, “Ruthenium carbon monoxide releasing molecules and uses thereof” (Alfama, Inc., priority 2011, dated 2017)
# Legend:
# P. berghei ANKA GFP [1] = assay: Adjunctive/adjuvant therapy with artesunate after onset of ECM; format: in vivo, C57BL/6 mice; settings: for parasitemia: AS alone 40 mg/Kg/day i.p. d5-d6
# Protocol: Thus, the inventors decided to test Compound 1 as an adjunctive and adjuvant therapy during the acute phase of ECM. […] Therefore, the inventors assessed the combination of Compound 1 and AS on parasite clearance and clinical recovery from ECM. Two AS and Compound 1 combinations were tested: (i) Adjunctive therapy: AS and Compound 1 were administered concomitantly for 2 days after the onset of CM followed by a 3-day treatment with Compound 1 alone, or (ii) Adjuvant therapy: AS was administered on the first 2 days after CM onset followed by Compound 1 administration for 3 more days.
# (§1) In order to evaluate the clinical presentation of experimental cerebral malaria, a classification was used in clinical stages from 0 to 4 (see, e.g., Bienvenu et al., Acta Trop (2008) 106:104-8; Franklin et al., Proc Natl Acad Sci USA (2011) 108:3689-94). Briefly, stage 0 indicates no detectable clinical symptoms, stage 1, ruffled fur; stage 2, ruffled fur and unbalancing; stage 3, limb paralysis and respiratory distress and stage 4, convulsions, coma or death. The mice were clinically classified before and after the treatment to evaluate the clinical recovery.
# (§2) CORM-2 (Sigma-Aldrich) and Compound 2 were solubilized using 10% dimethyl sulfoxide (DMSO; Sigma-Aldrich) in PBS. CORM-3 and Compound 1 were solubilized in PBS (lx). CORM-2 solution (20 mg/kg of body weight) was administered intravenously (i.v.) according to the chosen schedules. […] As vehicle control, we used a solution of 10% DMSO in PBS administered i.v. The concentrations of CORM-2 used in the present study were based on previous reports (see, e.g., Chen et al. Am. J. Pathol. (2009) 175:422-429; Sun et al., World. J. Gastroenterol. (2008) 14:547-553). Artesunate is presented as a powder of artesunic acid. Artesunate (AS) solution was prepared by dissolving 60 mg of anhydrous artesunic acid in 1 ml of sodium bicarbonate (5%) to form sodium artesunate and then diluted in 5 ml of NaCl (0.9%). An AS solution (i.p.) was administered at 40 mg/Kg/day, as described previously (see, e.g., Bienvenu, Acta Trop (2008) 106:104-108). The AS treatment was started when the infected non-treated mice presented the clinical stage 1 for experimental cerebral malaria.
# P. berghei ANKA GFP [2] = format: in vivo, C57BL/6 mice; settings: for hyperparasitemia in protected mice (infected red blood cells): 3 weeks after infection; for effect on parasitemia: treated twice daily days 2-3, observed from about day 5 to day 8 of infection
# Protocol: It has previously been shown that administration of CO by inhalation protects P. berghei ANKA infected C57BL/6 mice from developing ECM (see, e.g., Pamplona et al. Nat Med (2007) 13:703-710). The inventors questioned whether CO-RMs could mimic the protection conferred by CO inhalation in P. berghei ANKA infection. To this end, a known ruthenium CORM, Ru(CO)3Cl2, also referred to herein as CORM-2, was tested on different schedules of treatment and doses in P. berghei ANKA infected C57BL/6 mice (data not shown).
# Red blood cells infected with green fluorescent protein (GFP)-transgenic P. berghei ANKA and P. berghei ANKA was used to infect mice (see, e.g., Franke-Fayard et al. Mol Biochem Parasitol (2004) 137:23-33). Cryopreserved parasites were passed once through C57BL/6 or DBA-2 mice before being used to infect experimental animals. C57BL/6 or DBA-2, 6- to 8-wk-old mice (sex matched in each experiment) were infected by intra-peritoneal (i.p.) injection of 10^6 infected RBCs. The infected mice were monitored daily for clinical symptoms of experimental cerebral malaria (ECM) including hemi- or paraplegia, head deviation, tendency to roll over on stimulation, ataxia and convulsions, or ALI, including dyspnea. Mice showing severe signs of ECM at day 5, 6 or 7 post-infection (p.i.) and ALI between days 7 and 9 were sacrificed. Parasitemia was assessed by flow cytometry for mice infected with GFP-expressing P. berghei ANKA, using tail blood, as previously described (see, e.g., Pamplona et al., Nat Med (2007) 13:703-710). Mean parasitemia is expressed as percentage of infected red blood cells. For mice infected with non-GFP P. berghei parasitemia was assessed daily by microscopic counting of Giemsa-stained thin blood smears. Mean parasitemia is expressed as percentage of infected red blood cells. Survival is expressed as percentage.
# as §1, §2
# [3] = cited from earlier work
# [4] = Quantification of Ru in tissues (bio-distribution); settings: non-infected mice, i.v.
# Protocol: Tricarbonyldichloro(methylthiogalactopyranoside) Ru(II) [Ru(CO)3Cl2(Gal-S-Me)], also referred to herein as Compound 1, was prepared by reacting CORM-2 with methylthiogalactopyranoside (Gal-S-Me) as described herein (see FIG. 2a and Materials and Methods section). The bio-distribution of Compound 1 in tissues was assessed by quantifying the levels of Ru and CO in the host by the method of Vreman et al., Anal Biochem (2005) 341:280-9. Liver, kidney, spleen, lung and brain tissues of non-infected mice (NI) were analyzed one hour after administration of Compound 1 and the control molecule, Compound 2 (FIG. 2b). […] The spleen is an organ that plays a crucial role in erythrophagocytosis, process important for red blood cell turnover, and recycling of iron. Erythrocytes are hydrolyzed by splenic macrophages, where the degradation of hemoglobin occurs, haem is release, and is catabolized by heme oxygenase-1 into biliverdin, carbon monoxide and ferrous iron (Fe^2+).
# The tissue samples were weighed and dried at 80° C. overnight followed by 2 or more hours at 120° C. […] The Ru content was analyzed by an inductively coupled plasma-atomic emission spectrometer (ICP-AES) (model Ultima-Horiba Jobin Yvon, Longjumeau, France) using an external Ru standard method.
# [5] = Brain histology (hematoxylin and eosin) in ECM; format: in vivo, C57BL/6 mice; settings: P. berghei ANKA-infected mice
# Protocol: For evaluation of histological features, mice were deeply anesthetized until cessation of breathing when infected control mice presented signs of ECM or ALI. The livers, lungs, and brains were removed and fixed in 10% buffered formalin for 24-72 h. Four-micron sections were cut from paraffin-embedded tissues and stained with hematoxylin and eosin according to standard procedures. Histological analyses were performed on a Leica microscope DM 2500 (Leica Microsystems).
# P. berghei ANKA [6] = assay: In vitro replication of P. berghei ANKA; format: cell-based, Plasmodium berghei; settings: 24 h
# Protocol: (§3) The data led the inventors to wonder whether Compound 1 could have a direct anti-parasitic effect on P. berghei ANKA and P. falciparum parasites. To this end, the effect of Compound 1 and the anti-malarial chloroquine (CQ) was monitored on the in vitro replication of P. falciparum 3D7 isolate and P. berghei ANKA for 48 h and 24 h, respectively.
# P. berghei ANKA [7] = assay: Malaria-associated acute lung injury (M-AALI) model; format: in vivo, DBA/2 mice; settings: i.v. twice daily
# Description: The M-AALI model, based on the infection of DBA-2 mice with P. berghei ANKA, is characterized by dyspnea, airway obstruction, hypoxemia, pulmonary exudate and elevated VEGF levels in plasma, followed by death between days 7 and 12 after infection.
# Red blood cells infected with green fluorescent protein (GFP)-transgenic P. berghei ANKA and P. berghei ANKA was used to infect mice (see, e.g., Franke-Fayard et al. Mol Biochem Parasitol (2004) 137:23-33). Cryopreserved parasites were passed once through C57BL/6 or DBA-2 mice before being used to infect experimental animals. […] The infected mice were monitored daily for clinical symptoms of experimental cerebral malaria (ECM) including hemi- or paraplegia, head deviation, tendency to roll over on stimulation, ataxia and convulsions, or ALI, including dyspnea. […] Parasitemia was assessed by flow cytometry for mice infected with GFP-expressing P. berghei ANKA, using tail blood, as previously described (see, e.g., Pamplona et al., Nat Med (2007) 13:703-710). Mean parasitemia is expressed as percentage of infected red blood cells. For mice infected with non-GFP P. berghei parasitemia was assessed daily by microscopic counting of Giemsa-stained thin blood smears. Mean parasitemia is expressed as percentage of infected red blood cells. Survival is expressed as percentage. […]
# P. falciparum 3D7 = assay: In vitro replication of P. falciparum 3D7; format: cell-based, Plasmodium falciparum; settings: 48 h
# Protocol: as §3
# Hen Egg White Lysozyme C = biological target: T1, Hen Egg White Lysozyme C (Gallus gallus, UniProt P00698); assay: Hen egg white lysozyme (HEWL) assay, reactivity with proteins by LC-MS; format: binding; settings: 10 equiv in H2O, room temperature, 10 minutes and 1 hour
# T1 construct: one corresponding to the mass of native lysozyme (14305=calculated mass); from tissue; host or cells: hen egg white
# Description: The hen egg white lysozyme (HEWL) assay was used to assess the reactivity of Compound 1 in the presence of proteins (see, e.g., Santos-Silva, T. et al. J Am Chem Soc (2011) 133, 1192-1195). This paper describes the interactions of CORM-3 with plasma proteins. CORM-3 reacts rapidily with proteins, losing chloride ion, glycinate, and one CO ligand. […] It was observed that CORM-3 reacts faster and has a much weaker efficacy than Compound 1 in this ECM treatment.
# Liquid chromatography-mass spectrometry (LC-MS) was performed on a Micromass Quattro API instrument (ESI-TOF-MS) coupled to a Waters Alliance 2795 HPLC using a MassPREP On-Line Desalting Cartridge. […]
# Hen Egg White Lysozyme C (PDB code 3b61; UniProtKB/Swiss-Prot code P00698). […] Quantitative determination of lysozyme-ligand binding in the solution and gas phases by electrospray ionisation mass spectrometry follows Veros et al., Rapid Commun. […] A 50 μL aliquot was analyzed by LC-MS (calculated average isotopic mass of the egg white lysozyme=14305.1).
# Santos-Silva and co-workers previously describe CORM-3's reactivity towards proteins and formation of a Ru(II) dicarbonyl-lysozyme complex (see, e.g., Santos-Silva et al., J. Am. Chem. Soc. (2011) 133:1192-1195). […] 50 μL aliquots were collected and analyzed by LC-MS over the reaction time (10 minutes and 1 hour). […]
# T1 sequence (P00698 19-147): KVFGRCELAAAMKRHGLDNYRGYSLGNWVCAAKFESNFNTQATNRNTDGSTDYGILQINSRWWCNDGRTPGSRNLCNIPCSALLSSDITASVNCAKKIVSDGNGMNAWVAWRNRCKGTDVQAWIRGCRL
molecule,measurement,setting,value
"C[C@H]1[C@H](OC(=O)CCC(=O)O)O[C@@H]2O[C@@]3(C)CC[C@H]4[C@H](C)CC[C@@H]1[C@@]24OO3 [AS, Artesunate]",parasitemia,P. berghei ANKA GFP [1]; day 5 post-infection,6.8±0.3%
same,parasitemia,P. berghei ANKA GFP [1]; day 9 post-infection,0.59±0.06%
same,mice that died with ECM,P. berghei ANKA GFP [1]; AS alone d5-d6,82%
same,survival,P. berghei ANKA GFP [1]; AS alone d5-d6,18%
"[C-]#[O+].[C-]#[O+].[C-]#[O+].[C-]#[O+].[C-]#[O+].[C-]#[O+].[Cl][Ru][Cl].[Cl][Ru][Cl] [CORM-2, tricarbonyldichlororuthenium(II) dimer]",hyperparasitemia in protected mice (infected red blood cells),P. berghei ANKA GFP [2],> 30 % infected red blood cells
same,death or symptoms of ECM,P. berghei ANKA GFP [2]; CORM-2 20 mg/kg i.v. twice daily between days 2 and 3 after infection,prevented death or symptoms of ECM in all infected C57BL/6 mice
same,effect on parasitemia,P. berghei ANKA GFP [2],statistically significant delay in parasitemia
same,COHb levels in blood after in vivo administration,[3],do not elevate the carboxyhemoglobin (COHb) levels
Tricarbonyldichloro(methylthiogalactopyranoside) Ru(II) [Compound 1],"amount of Ru retained in the liver after the last injection, of the Ru administered in all doses",[4],about 13.7±0.6%
"CS(C)=O.CS(C)=O.CS(C)=O.CS(C)=O.[Cl][Ru][Cl] [Compound 2, Tetrakis(dimethylsulfoxide)dichlororuthenium(II), reference compound]",neuropathologic features in brain sections,[5],evidence of microvascular congestion with pRBC and leukocytes and hemorrhagic foci
same,inhibition of in vitro growth,P. berghei ANKA [6],absence of inhibitory effect
same,mice that died displaying M-AALI symptoms,P. berghei ANKA [7],67%
same,inhibition of in vitro growth,P. falciparum 3D7,absence of inhibitory effect
"NCC(=O)O.[C-]#[O+].[C-]#[O+].[C-]#[O+].[Cl][Ru] [CORM-3, fac-Ru(CO)3C1(glycinate)]",reactivity with HEWL (adduct formation),Hen Egg White Lysozyme C,reacts faster
same,hyperparasitemia in protected mice (infected red blood cells),P. berghei ANKA GFP [2],> 50 % infected red blood cells
same,mice protected from ECM,"P. berghei ANKA GFP [2]; i.v. twice daily between days 2 and 3 after infection, equimolar to CORM-2 20 mg/kg",50%
same,effect on parasitemia,P. berghei ANKA GFP [2],statistically significant delay in parasitemia
same,COHb levels in blood after in vivo administration,[3],do not elevate the carboxyhemoglobin (COHb) levels
